Results reported in PubChem BioAssay (NCI).
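Five compound concentrations were applied to cells in 96-well plates for 48 hours; endpoints were derived by simple linear interpolation of the resulting dose-response curve. Here, GI50 denotes the concentration required for 50% inhibition of growth. TGI marks complete inhibition of growth.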

Assays:
Test in all cases: inhibition of tumour cell growth, NCI panel, 48 h
SK-MEL-5 melanoma = system: SK-MEL-5 melanoma
A549 NSCLC = system: A549 NSCLC
OVCAR-4 ovarian = system: OVCAR-4 ovarian
SR leukemia = system: SR leukemia
DU-145 prostate = system: DU-145 prostate
SNB-19 CNS = system: SNB-19 CNS
UO-31 renal = system: UO-31 renal
HT29 colon = system: HT29 colon
A498 renal = system: A498 renal
MDA-MB-435 = system: MDA-MB-435

Row | SMILES | GI50 (SK-MEL-5 melanoma) [µM] | TGI (SK-MEL-5 melanoma) [µM] | GI50 (A549 NSCLC) [µM] | TGI (A549 NSCLC) [µM] | GI50 (OVCAR-4 ovarian) [µM] | TGI (OVCAR-4 ovarian) [µM] | GI50 (SR leukemia) [µM] | TGI (SR leukemia) [µM] | GI50 (DU-145 prostate) [µM] | TGI (DU-145 prostate) [µM] | GI50 (SNB-19 CNS) [µM] | TGI (SNB-19 CNS) [µM] | GI50 (UO-31 renal) [µM] | TGI (UO-31 renal) [µM] | GI50 (HT29 colon) [µM] | TGI (HT29 colon) [µM] | GI50 (A498 renal) [µM] | TGI (A498 renal) [µM] | GI50 (MDA-MB-435) [µM] | TGI (MDA-MB-435) [µM]
1 | O=C1NN(c2ccccc2)C(=O)/C1=C/c1ccc(Br)o1 | 1.26 | 2.05 | 12 | 44.4 | 15.3 | 29.5 | 2.62 | 8.3 | 1.45 | 11.2 | 17.5 | 41.9 | 8.8 | > 64.1 | 4.21 | 22.1 | 23 | 53.9 | 6.65 | 23.8
2 | NC1=Nc2cc(OCCCN3Cc4ccccc4C3)c(OCC3CC3)cc2C12CCCC2 | 1.67 | 3.04 | 3.99 | 13.5 | 3.55 | 16.6 | 1.94 | 5.02 | 4.44 | 16.2 | 4.53 | 16.4 | 1.49 | 3.14 | 1.95 | 6.53 | 4.48 | 18.1 | 1.8 | 3.66
3 | C=CC1=C(C)C2=NC1=CC1=NC(=CC3=C(C)C4=C(O)C(C(=O)OC)C(=C5NC(=C2)C(C)C5CCC(=O)OC)C4=N3)C(CC)=C1C (stereo not given) | – | > 100 | – | > 100 | – | > 100 | – | > 100 | – | > 100 | – | > 100 | – | > 100 | – | > 100 | – | > 100 | – | > 100
4 | COc1ccc(-c2cc(=O)c3c(OC)c(OC)c(OC)c(OC)c3o2)c(OC)c1 | – | 55.8 | – | > 100 | – | 94.4 | – | > 100 | – | > 100 | – | > 100 | – | 62.8 | – | 68.5 | – | 76.1 | – | 89.7
5 | Cc1cc(N(CCCl)CCCl)ccc1/C=N/NC(=O)Cc1cc(=O)oc2cc(O)ccc12 | – | 21.1 | – | 42.2 | – | > 100 | – | > 100 | – | > 100 | – | 41 | – | 47.2 | – | 31.2 | – | 45.3 | – | 38.5
6 | O=C(Nc1ccccc1)Nc1cccc(Oc2nnc(Cl)c3ccccc23)c1 | 4.56 | 18.6 | 3.47 | 18.4 | 1.74 | 12.2 | 1.93 | 8.26 | 3.01 | 10.5 | 1.67 | 8.46 | 3.98 | 19.6 | 5.26 | > 25 | 3.45 | 13.1 | 7.54 | > 25
7 | COc1ccccc1-c1cc(=O)c2ccc(OC)c(OC)c2o1 | – | > 100 | – | > 100 | – | > 100 | – | > 100 | – | > 100 | – | > 100 | – | > 100 | – | > 100 | – | > 100 | – | > 100
8 | COc1ccc(OC)c2c(=S)c3ccccc3[nH]c12 | – | 70.1 | – | > 100 | – | > 100 | – | > 100 | – | > 100 | – | > 100 | – | > 100 | – | > 100 | – | > 100 | – | > 100
9 | C=C1C(=O)OC2CC(C)C3C=CC(=O)C3CC12 (stereo not given) | – | 6.04 | – | 24 | – | 9.68 | – | 4.53 | – | 21.7 | – | 37.7 | – | 8.41 | – | 4.83 | – | 24.3 | – | 12.4
10 | N#C/C(=C\c1ccc(Br)cc1)n1nnc2ccccc21 | 0.999 | 2.32 | 0.808 | 15 | 1.5 | 5.25 | 0.144 | 14.6 | 1.23 | 3.31 | 0.763 | 2.41 | 0.449 | 1.63 | 0.411 | 2.25 | 1.71 | 4.37 | 0.191 | 0.438
11 | C/C(=N\N=C(N)N)C(CN(C)C)C(c1ccccc1)c1c(O)c2ccccc2oc1=O (stereo not given) | – | > 100 | – | > 100 | – | > 100 | – | > 100 | – | > 100 | – | > 100 | – | > 100 | – | > 100 | – | > 100 | – | > 100
12 | CS(=O)(=O)OCCN(CCOS(C)(=O)=O)c1ccc(C=O)cc1 | – | 29.1 | – | 35.8 | – | 37.6 | – | 14.7 | – | 7.17 | – | 65.5 | – | 3.09 | – | 57.9 | – | 4.43 | – | 24.6
13 | COc1ccc2c(c1)C1(C(=O)N2)C(C#N)=C(c2ccccc2)Nc2c1c(-c1ccccc1)nn2-c1ccccc1 (stereo not given) | 2.4 | 6.62 | 2.49 | 5.55 | 1.77 | 3.5 | 3.08 | 8.65 | 2.71 | 6.82 | 3.95 | 15 | 15.8 | 30.1 | 2.34 | 5.82 | 1.61 | 4.35 | 2.16 | 5.29
14 | CN1CCN(c2ccc(C(=O)Nc3cc(-c4cccc(NS(=O)(=O)c5ccccc5)c4)[nH]n3)cc2)CC1 | 4.17 | 9.23 | 7.85 | 25.4 | 6.42 | 28.7 | 2 | 5.33 | 8.52 | 21.2 | 14.2 | 32.2 | 6.26 | 27.8 | 3.51 | 14.6 | 0.505 | 9.75 | 6.84 | 22.3
15 | Fc1ccc2[nH]cc(SSc3c[nH]c4ccc(F)cc34)c2c1 | 5.13 | 18.3 | 4.98 | 87.7 | 3.87 | 18.2 | 2.29 | 11.3 | 11.6 | 31.1 | 5.21 | 22.1 | 4.83 | 52.3 | 5.46 | 23.9 | 3.61 | 14.4 | 4.62 | 21.5
16 | Cc1c(N=Cc2ccc(N(CCC#N)CCC#N)cc2)c(=O)n(-c2ccccc2)n1C | – | > 100 | – | > 100 | – | > 100 | – | > 100 | – | > 100 | – | > 100 | – | > 100 | – | > 100 | – | > 100 | – | > 100
17 | NC(=O)c1ccc2nc3c(n2c1)C(=O)C(=O)c1ccccc1-3 | 0.936 | 2.25 | 2.18 | 4.48 | 0.481 | 1.71 | 0.488 | 3.86 | 0.928 | 2.24 | 1.1 | 2.31 | 1.47 | 2.79 | 2.4 | 6.01 | 1.73 | 3.14 | 0.186 | 0.336
